Data published in patent publication US20080292584A1 (priority 2005, published 2008).
“And” between values parts separate entries of the source, which are not always exact repeats. Identical values can stand only once.

Key:
[1] = molecular target: T1, CYP2A6 (Homo sapiens, UniProt P11509); test: Metabolism of metaxalone by expressed recombinant human CYP2A6 (Example 1); conditions: 30 min;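 further: expressed P450 incubations started with NADPH regenerating system, 0.5 mL final volume, compared against metabolic negative controls, with background signal estimated from matrix controls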
T1 sequence (P11509 1-494): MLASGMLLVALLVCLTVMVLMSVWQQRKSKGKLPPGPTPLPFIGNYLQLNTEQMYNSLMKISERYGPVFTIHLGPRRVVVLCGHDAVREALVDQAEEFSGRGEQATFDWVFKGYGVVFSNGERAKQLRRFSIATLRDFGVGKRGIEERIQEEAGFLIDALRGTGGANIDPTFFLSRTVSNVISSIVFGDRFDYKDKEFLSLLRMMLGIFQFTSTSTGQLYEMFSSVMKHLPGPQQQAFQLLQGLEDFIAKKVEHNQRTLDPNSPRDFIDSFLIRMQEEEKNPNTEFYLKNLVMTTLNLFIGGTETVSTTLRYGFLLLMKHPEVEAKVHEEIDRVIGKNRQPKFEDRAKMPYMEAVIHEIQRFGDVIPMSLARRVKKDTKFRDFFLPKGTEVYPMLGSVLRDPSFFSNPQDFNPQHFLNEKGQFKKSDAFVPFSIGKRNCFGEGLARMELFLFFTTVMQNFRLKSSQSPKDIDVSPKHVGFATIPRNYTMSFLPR
Description: Commercially available microsomes from baculovirus-infected insect cells containing singly-expressed recombinant wild-type (*1 allele) human CYP enzymes and cDNA-expressed human cytochrome p450 oxidoreductase [BD SUPERSOMES Enzymes; BD Biosciences Discovery Labware (Woburn, Mass.)] were used.
After a 5-minute pre-incubation, an NADPH regenerating system (NRS) was added to the incubation mixtures to initiate reactions, with a final incubation volume of 0.5 mL. Incubations were continued for 30 minutes, and then terminated, except for those for CYP2C19, which were incubated for 36 minutes prior to termination.
Matrix controls were performed to determine the background signal from the matrix components (microsomes (10 pmol p450), 01N Tris buffer, NRS, and 1% methanol). […] After a 5-minute pre-incubation, 2% sodium bicarbonate solution was added to the incubation mixtures. Incubation was for 30 minutes at a final volume of 0.5 mL. Matrix and metabolic negative controls were terminated by adding an equal volume of methanol. […] Analysis of samples was subsequent to storage at −70° C.

[2] = molecular target: T2, CYP2C8 (Homo sapiens, UniProt P10632); test: Inhibition of CYP2C8 activity in pooled human liver microsomes (paclitaxel 5 μM to 6-hydroxy paclitaxel); assay type: in vitro ADME
T2 sequence (P10632 1-490): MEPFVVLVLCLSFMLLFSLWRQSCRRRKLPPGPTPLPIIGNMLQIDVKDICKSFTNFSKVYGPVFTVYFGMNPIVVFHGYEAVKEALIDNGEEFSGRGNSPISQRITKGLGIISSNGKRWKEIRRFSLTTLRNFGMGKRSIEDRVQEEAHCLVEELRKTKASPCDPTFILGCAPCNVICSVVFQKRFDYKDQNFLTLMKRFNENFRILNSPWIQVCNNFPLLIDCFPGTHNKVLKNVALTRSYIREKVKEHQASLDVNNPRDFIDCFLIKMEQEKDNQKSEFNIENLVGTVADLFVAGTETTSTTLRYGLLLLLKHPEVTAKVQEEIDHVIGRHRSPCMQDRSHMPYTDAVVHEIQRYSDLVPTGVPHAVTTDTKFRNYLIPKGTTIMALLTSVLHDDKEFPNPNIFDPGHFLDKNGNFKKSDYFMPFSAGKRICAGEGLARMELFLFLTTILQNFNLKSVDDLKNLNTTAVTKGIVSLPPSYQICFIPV
Description: All other incubations were for 30 minutes.
Four replicates were performed.
Two replicates were performed.

[3] = molecular target: CYP2C19 (Homo sapiens, UniProt P33261); test: Metabolism of metaxalone by expressed recombinant human CYP2C19 at 5 or 20 pmol (Example 4); conditions: for percent turnover / % Turnover Mean / [metaxalone] Mean / % Turnover % / [metaxalone]: 60 min; for % Turnover % / [metaxalone]: single replicates, listed as Metaxalone
[4] = molecular target: T3, CYP2B6 (Homo sapiens, UniProt P20813); test: Metabolism of metaxalone by expressed recombinant human CYP2B6 at 5 or 20 pmol (Example 4); conditions: for % Turnover Mean / [metaxalone] Mean / % Turnover % / [metaxalone]: 60 min; for % Turnover % / [metaxalone]: single replicates
T3 sequence (P20813 1-491): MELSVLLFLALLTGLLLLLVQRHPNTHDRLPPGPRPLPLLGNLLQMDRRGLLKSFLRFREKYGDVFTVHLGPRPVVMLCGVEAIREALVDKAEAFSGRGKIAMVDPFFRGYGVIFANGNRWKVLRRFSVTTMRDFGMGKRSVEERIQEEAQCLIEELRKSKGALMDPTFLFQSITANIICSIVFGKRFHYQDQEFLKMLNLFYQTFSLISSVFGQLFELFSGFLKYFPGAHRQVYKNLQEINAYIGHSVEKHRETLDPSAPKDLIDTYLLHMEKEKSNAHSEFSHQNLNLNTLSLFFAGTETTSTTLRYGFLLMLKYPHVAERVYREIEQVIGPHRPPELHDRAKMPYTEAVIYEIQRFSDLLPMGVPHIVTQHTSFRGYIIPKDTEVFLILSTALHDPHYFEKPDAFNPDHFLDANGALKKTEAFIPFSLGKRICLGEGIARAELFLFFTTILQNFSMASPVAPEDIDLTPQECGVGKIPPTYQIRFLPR

[5] = 400 mg oral dosage form; humans; cited from earlier work
[6] = 0.75 μM metaxalone, 20 pmol cyp
[7] = 0.75 μM metaxalone, 5 pmol cyp, listed as Metaxalone
[8] = 0.75 μM metaxalone, 20 pmol cyp, listed as Metaxalone
[9] = 7.5 μM metaxalone, 5 pmol cyp, listed as Metaxalone
[10] = 7.5 μM metaxalone, 20 pmol cyp, listed as Metaxalone

Sequence of CYP2C19 (P33261 whole entry): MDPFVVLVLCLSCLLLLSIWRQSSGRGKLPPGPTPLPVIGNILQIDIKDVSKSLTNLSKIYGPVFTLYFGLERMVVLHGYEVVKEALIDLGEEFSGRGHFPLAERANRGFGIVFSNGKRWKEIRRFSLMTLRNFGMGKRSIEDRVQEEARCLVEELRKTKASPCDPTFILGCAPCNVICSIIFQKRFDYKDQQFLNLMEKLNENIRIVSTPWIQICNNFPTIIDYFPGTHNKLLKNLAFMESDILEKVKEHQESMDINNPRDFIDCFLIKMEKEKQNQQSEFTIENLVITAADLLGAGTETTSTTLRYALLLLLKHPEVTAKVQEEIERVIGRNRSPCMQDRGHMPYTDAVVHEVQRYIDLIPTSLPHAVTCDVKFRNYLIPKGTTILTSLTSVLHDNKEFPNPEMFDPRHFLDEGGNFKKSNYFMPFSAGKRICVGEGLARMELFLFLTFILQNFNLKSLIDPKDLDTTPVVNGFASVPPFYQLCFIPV

What does the source list for Cc1cc(C)cc(OCC2CNC(=O)O2)c1 (stereo not drawn) [metaxalone, 5-[(3,5-dimethylphenoxy)methyl]-2-oxazolidinone]?
Metaxalone Present Adjusted Individual ([1]; metaxalone 0.5 μM): 0.309 µM and 0.302 µM and 0.285 µM; Metaxalone Present Adjusted Mean ± SD ([1]; metaxalone 0.5 μM): 0.299 ± 0.0124 µM; Metaxalone Present Raw ([1]; metaxalone 0.5 μM): 0.1546 µM and 0.1511 µM and 0.1425 µM; Percent of Metabolic Negative Control Individual ([1]; metaxalone 0.5 μM): 99.5% and 97.2% and 91.7%; Percent of Metabolic Negative Control Mean ± SD ([1]; metaxalone 0.5 μM): 96.1 ± 3.99%; Metaxalone Present Adjusted Individual ([1]; metaxalone 2.5 μM): 1.58 µM and 1.60 µM and 1.65 µM; Metaxalone Present Adjusted Mean ± SD ([1]; metaxalone 2.5 μM): 1.61 ± 0.0373 µM; Metaxalone Present Raw ([1]; metaxalone 2.5 μM): 0.7913 µM and 0.7979 µM and 0.8264 µM; Percent of Metabolic Negative Control Individual ([1]; metaxalone 2.5 μM): 104% and 105% and 109%; Percent of Metabolic Negative Control Mean ± SD ([1]; metaxalone 2.5 μM): 106 ± 2.46%; Metaxalone Present Adjusted Individual ([1]; metaxalone 25 μM): 15.5 μM and 15.7 μM (2×); Metaxalone Present Adjusted Mean ± SD ([1]; metaxalone 25 μM): 15.6 ± 0.0975 µM; Metaxalone Present Raw ([1]; metaxalone 25 μM): 7.764 µM and 7.85 µM and 7.846 µM; Percent of Metabolic Negative Control Individual ([1]; metaxalone 25 μM): 101% and 102% (2×); Percent of Metabolic Negative Control Mean ± SD ([1]; metaxalone 25 μM): 102 ± 0.636%; inhibition of CYP activity at a statistically significant level ([2]; 0.3-100 μM metaxalone): no tested concentration of metaxalone inhibited activity; Inhibitor ([2]; CYP isozyme 2C8, summary of studies): 0; Percent of VC ([2]; metaxalone 0.3 μM): 92.7%; Specific Activity Individual ([2]; metaxalone 0.3 μM): 19.3 pmol/min/mg protein and 15.2 pmol/min/mg protein and 16.1 pmol/min/mg protein; Specific Activity Mean ± SD ([2]; metaxalone 0.3 μM): 16.8 ± 2.18 pmol/min/mg protein; Percent of VC ([2]; metaxalone 1 μM): 103%; Specific Activity Individual ([2]; metaxalone 1 μM): 18.6 pmol/min/mg protein and 18.3 pmol/min/mg protein and 19.1 pmol/min/mg protein; Specific Activity Mean ± SD ([2]; metaxalone 1 μM): 18.7 ± 0.406 pmol/min/mg protein; Percent of VC ([2]; metaxalone 3 μM): 109%; Specific Activity Individual ([2]; metaxalone 3 μM): 20.0 pmol/min/mg protein and 19.9 pmol/min/mg protein and 19.6 pmol/min/mg protein; Specific Activity Mean ± SD ([2]; metaxalone 3 μM): 19.9 ± 0.232 pmol/min/mg protein; Percent of VC ([2]; metaxalone 30 μM): 101%; Specific Activity Individual ([2]; metaxalone 30 μM): 19.9 pmol/min/mg protein and 18.3 pmol/min/mg protein and 16.9 pmol/min/mg protein; Specific Activity Mean ± SD ([2]; metaxalone 30 μM): 18.4 ± 1.52 pmol/min/mg protein; Percent of VC ([2]; metaxalone 100 μM): 97.8%; Specific Activity Individual ([2]; metaxalone 100 μM): 17.6 pmol/min/mg protein and 20.6 pmol/min/mg protein and 15.1 pmol/min/mg protein; Specific Activity Mean ± SD ([2]; metaxalone 100 μM): 17.8 ± 2.76 pmol/min/mg protein; percent turnover ([3]; 0.75 μM metaxalone, 5 pmol CYP450): 6.9%; % Turnover Mean ([3]; 0.75 μM metaxalone, 5 pmol cyp): 6.9%; [metaxalone] Mean ([3]; 0.75 μM metaxalone, 5 pmol cyp): 0.662 µM; % Turnover % ([3]; 0.75 μM metaxalone, 5 pmol cyp): 2.2% and 7.6% and 11.0%; [metaxalone] ([3]; 0.75 μM metaxalone, 5 pmol cyp): 0.696 µM and 0.658 µM and 0.634 µM; percent turnover ([3]; 0.75 μM metaxalone, 20 pmol CYP450): 12.5%; % Turnover Mean [3, 6]: 12.5%; [metaxalone] Mean [3, 6]: 0.623 µM; % Turnover % [3, 6]: 7.4% and 13.3% and 16.9%; [metaxalone] [3, 6]: 0.659 µM and 0.618 µM and 0.591 µM; percent turnover ([3]; 7.5 μM metaxalone, 5 pmol CYP450): 6.3%; % Turnover Mean ([3]; 7.5 μM metaxalone, 5 pmol cyp): 6.3%; [metaxalone] Mean ([3]; 7.5 μM metaxalone, 5 pmol cyp): 7.23 µM; % Turnover % ([3]; 7.5 μM metaxalone, 5 pmol cyp): 0.25% and 7.1% and 11.6%; [metaxalone] ([3]; 7.5 μM metaxalone, 5 pmol cyp): 7.69 µM and 7.17 µM and 6.82 µM; percent turnover ([3]; 7.5 μM metaxalone, 20 pmol CYP450): 18.7%; % Turnover Mean ([3]; 7.5 μM metaxalone, 20 pmol cyp): 18.7%; [metaxalone] Mean ([3]; 7.5 μM metaxalone, 20 pmol cyp): 6.27 µM; % Turnover % ([3]; 7.5 μM metaxalone, 20 pmol cyp): 20.2% and 18.0% and 17.8%; [metaxalone] ([3]; 7.5 μM metaxalone, 20 pmol cyp): 6.16 µM and 6.32 µM and 6.34 µM; Substrate ([3]; CYP isozyme 2C19, summary of studies): +; % Turnover Mean ([4]; 0.75 μM metaxalone, 5 pmol cyp): −6.8%; [metaxalone] Mean ([4]; 0.75 μM metaxalone, 5 pmol cyp): 0.845 µM; % Turnover % [4, 7]: −11.0% and −2.8% and −6.6%; [metaxalone] [4, 7]: 0.878 µM and 0.813 µM and 0.843 µM; % Turnover Mean [4, 6]: −1.8%; [metaxalone] Mean [4, 6]: 0.805 µM; % Turnover % [4, 8]: 5.5% and −6.7% and −4.0%; [metaxalone] [4, 8]: 0.748 µM and 0.845 µM and 0.823 µM; % Turnover Mean ([4]; 7.5 μM metaxalone, 5 pmol cyp): 3.0%; [metaxalone] Mean ([4]; 7.5 μM metaxalone, 5 pmol cyp): 8.20 µM; % Turnover % ([4]; 7.5 μM metaxalone, 5 pmol cyp): −1.3%; % Turnover % [4, 9]: 3.0% and 7.2%; [metaxalone] [4, 9]: 8.56 µM and 8.19 µM and 7.84 µM; % Turnover Mean ([4]; 7.5 μM metaxalone, 20 pmol cyp): −0.20%; [metaxalone] Mean ([4]; 7.5 μM metaxalone, 20 pmol cyp): 8.46 µM; % Turnover % ([4]; 7.5 μM metaxalone, 20 pmol cyp): −6.0%; % Turnover % [4, 10]: 1.8% and 3.6%; [metaxalone] [4, 10]: 8.95 µM and 8.29 µM and 8.14 µM; Substrate ([4]; CYP isozyme 2B6, summary of studies): 0; observed increase of extent of absorption (AUC0-inf) with food relative to fasted treatment [5]: 115.4%; observed increase of extent of absorption (AUC0-t) with food relative to fasted treatment [5]: 123.5%; observed increase of peak plasma concentration (Cmax) with food relative to fasted treatment [5]: 177.5%
